Measurements from patent publication US20200031771A1, “SUBSTITUTED PHENYLPROPIONIC ACID ENANTIOMER AND MANUFACTURING METHOD, COMPOSITION, AND APPLICATION OF SAME” (SHENZHEN CHIPSCREEN BIOSCIENCES CO., LTD., priority 2016, published 2020).

Experiments:
db/db mice [1] = test: Glucose tolerance test (OTGG) in db/db mice after 14 days of administration; assay type: in vivo, mouse; details: n = 10; for Blood glucose in glucose tolerance test, average value, 15 min: 15 min after oral 2 g/kg glucose; for Blood glucose in glucose tolerance test, average value, 30 min: 30 min after oral 2 g/kg glucose; for Blood glucose in glucose tolerance test, average value, 60 min: 60 min after oral 2 g/kg glucose; for Blood glucose in glucose tolerance test, average value, 120 min: 120 min after oral 2 g/kg glucose; for Glucose tolerance test AUC, average value: oral 2 g/kg glucose, 0-120 min; for Blood glucose in glucose tolerance test, average value, 0 min: overnight fast, before oral 2 g/kg glucose (0 min)
Procedure: (§1) The route of administration was oral, the dose was 20 mg/kg in the administration group and 5 mg/kg in the control group, the frequency of administration was once a day, and the administration period was 14 days. […] On days 0, 3, 6, 9, 12, and 14, after fasting for 6 hours after administration, blood was collected from the tail vein and fasting blood glucose levels was measured by a blood glucose meter and recorded.
After 14 days of administration, the animals were fasted overnight (<10 hours), and orally given 2 g/kg of glucose on the next day. Blood was collected from the tail vein at the 0 (pre-administration or fasting blood glucose level), 15, 30, 60 and 120 minutes after administration, respectively, and blood glucose levels were then measured by blood glucose meter and recorded.

[2] = target: T1, RXR/PPAR-6 heterodimer (PPARδ) (Homo sapiens, UniProt Q03181); test: PPARδ in vitro reporter gene assay (pGL3-PPRE reporter, PPARδ and RXR plasmids) in L-02 cells; assay type: cell-based; details: 24 h after compound addition, luciferase corrected by GFP, read-out: EC50 (semi-activating activity) activating PPAR-6
T1 construct: expressed in transfected cells; host or cells: L-02
T1 sequence (Q03181 1-441): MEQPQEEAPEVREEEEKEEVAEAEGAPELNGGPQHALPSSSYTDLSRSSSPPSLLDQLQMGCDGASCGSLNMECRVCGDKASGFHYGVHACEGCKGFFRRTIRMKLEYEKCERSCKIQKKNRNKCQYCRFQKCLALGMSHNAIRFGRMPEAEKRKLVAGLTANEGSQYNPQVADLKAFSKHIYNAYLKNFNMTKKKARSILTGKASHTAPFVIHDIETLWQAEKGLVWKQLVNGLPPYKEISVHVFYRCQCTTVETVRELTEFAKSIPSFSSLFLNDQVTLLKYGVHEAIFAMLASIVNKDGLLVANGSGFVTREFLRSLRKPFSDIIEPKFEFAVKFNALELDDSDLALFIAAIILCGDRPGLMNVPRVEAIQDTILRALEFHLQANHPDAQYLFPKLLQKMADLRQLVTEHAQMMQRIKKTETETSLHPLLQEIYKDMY
T1 sequence (P19793 1-462 partner): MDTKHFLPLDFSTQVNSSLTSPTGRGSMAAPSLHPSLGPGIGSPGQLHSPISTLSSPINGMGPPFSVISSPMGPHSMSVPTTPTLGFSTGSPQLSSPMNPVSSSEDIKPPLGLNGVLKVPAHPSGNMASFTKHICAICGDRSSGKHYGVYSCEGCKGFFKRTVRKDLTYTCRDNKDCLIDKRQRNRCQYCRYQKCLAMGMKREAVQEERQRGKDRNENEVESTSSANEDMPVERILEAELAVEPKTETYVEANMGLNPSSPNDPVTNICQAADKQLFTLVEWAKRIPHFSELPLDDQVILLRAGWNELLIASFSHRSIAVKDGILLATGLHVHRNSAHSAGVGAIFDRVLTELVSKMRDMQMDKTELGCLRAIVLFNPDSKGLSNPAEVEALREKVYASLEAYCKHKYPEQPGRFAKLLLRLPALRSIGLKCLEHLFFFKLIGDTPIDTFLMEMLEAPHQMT
Procedure: The PPARδ reporter gene detection system comprises a pGL3-PPRE fluorescent reporter gene plasmid (PPRE enhancer element was inserted into the upstream of the promoter), PPARδ expression plasmid, RXR expression plasmid, and a green fluorescent protein GFP expression plasmid.
(§2) The above plasmids were co-transfected (Fugene 6.0 transfection reagent) into human hepatoma cell line L-02. 48 hours after transfection, different concentrations of test compounds were added. 24 hours after administration, the cells were treated with a luciferase assay kit (Promega E1910) and the fluorescence intensity of GFP (wavelength 485-527 nm) and luciferase substrate (wavelength 562 nm) were detected using a fluorescence detector (Fluoroskan Ascent FL), respectively. The GFP signal is used as an internal reference to correct the detected luciferase substrate signal, and a relative reporter activation intensity was obtained by comparing the above corrected signal to the blank control (without treatment of the compounds). The semi-activating activity (EC50) of the test compound was calculated from concentration gradient data.

human PPARα = target: T2, human PPARα (Homo sapiens, UniProt Q07869); test: PPARα in vitro reporter gene assay (PPRE-luciferase) in L-02 cells; assay type: cell-based; details: 24 h after compound addition, luciferase corrected by GFP, read-out: EC50 (semi-activating activity) activating PPARα
T2 construct: expressed in transfected cells; host or cells: L-02
T2 sequence (Q07869 1-468): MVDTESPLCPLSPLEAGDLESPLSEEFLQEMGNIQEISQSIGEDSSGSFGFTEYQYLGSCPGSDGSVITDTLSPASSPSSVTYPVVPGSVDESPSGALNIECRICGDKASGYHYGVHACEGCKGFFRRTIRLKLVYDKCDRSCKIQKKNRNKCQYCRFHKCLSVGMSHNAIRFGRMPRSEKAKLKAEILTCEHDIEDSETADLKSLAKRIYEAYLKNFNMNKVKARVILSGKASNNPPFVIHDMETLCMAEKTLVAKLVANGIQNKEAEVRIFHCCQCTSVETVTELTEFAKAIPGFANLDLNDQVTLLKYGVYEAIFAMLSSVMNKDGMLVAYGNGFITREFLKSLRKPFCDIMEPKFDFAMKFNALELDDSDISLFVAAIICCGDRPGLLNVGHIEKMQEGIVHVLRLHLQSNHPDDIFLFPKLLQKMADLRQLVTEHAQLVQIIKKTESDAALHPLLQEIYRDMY
Procedure: The PPARα reporter gene detection system comprises a pCDNA3.1 luciferase expression plasmid (PPRE enhancer element was inserted into the upstream of the promoter), a green fluorescent protein GFP expression plasmid, and a human PPARα expression plasmid.
as §2, with “Ascent FL)” for “Ascent FL),”, “signal was” for “signal is”

RXR/PPARγ heterodimer = target: T3, RXR/PPARγ heterodimer (Homo sapiens, UniProt P37231); test: PPARγ in vitro reporter gene assay (pACOX reporter, PPARγ and RXR plasmids) in L-02 cells; assay type: cell-based; details: 24 h after compound addition, luciferase corrected by GFP, read-out: EC50 (semi-activating activity) activating PPARγ
T3 construct: expressed in transfected cells; host or cells: L-02
T3 sequence (P37231 1-505): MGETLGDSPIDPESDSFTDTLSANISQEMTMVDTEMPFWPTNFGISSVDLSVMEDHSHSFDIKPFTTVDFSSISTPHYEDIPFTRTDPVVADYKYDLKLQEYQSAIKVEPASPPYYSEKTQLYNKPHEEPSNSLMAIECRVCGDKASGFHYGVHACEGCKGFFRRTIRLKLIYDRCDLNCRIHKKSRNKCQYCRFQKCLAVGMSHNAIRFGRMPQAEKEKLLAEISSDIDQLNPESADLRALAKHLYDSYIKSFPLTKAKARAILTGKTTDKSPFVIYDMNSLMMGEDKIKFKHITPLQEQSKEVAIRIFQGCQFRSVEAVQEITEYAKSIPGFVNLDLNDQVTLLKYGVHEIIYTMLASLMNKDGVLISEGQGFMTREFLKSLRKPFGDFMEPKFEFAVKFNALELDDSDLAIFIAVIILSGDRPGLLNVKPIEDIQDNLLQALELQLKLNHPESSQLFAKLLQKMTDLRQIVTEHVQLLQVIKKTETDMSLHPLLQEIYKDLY
T3 sequence (P19793 1-462 partner): T1 sequence (P19793 1-462 partner)
Procedure: The PPARγ reporter gene detection system comprises a pACOX fluorescent reporter gene plasmid (the promoter comprises PPRE sequence), PPARγ expression plasmid, RXR expression plasmid, and a green fluorescent protein GFP expression plasmid.
as §2, with “signal was” for “signal is”

db/db mice [3] = test: Fasting blood glucose in db/db mice during 14 days of oral administration; assay type: in vivo, mouse; details: oral once a day, enantiomers 20 mg/kg, rosiglitazone 5 mg/kg, 6 h fasting; for Fasting blood glucose, average value, Day 0: Day 0, n = 10; for Fasting blood glucose, average value, Day 3: Day 3, n = 10; for Fasting blood glucose, average value, Day 6: Day 6, n = 10; for Fasting blood glucose, average value, Day 9: Day 9, n = 10; for Fasting blood glucose, average value, Day 12: Day 12, n = 10; for Fasting blood glucose, average value, Day 14: Day 14, n = 10
Procedure: as §1

Compound	Blood glucose in glucose tolerance test, average value, 15 min (db/db mice [1])	Blood glucose in glucose tolerance test, average value, 30 min (db/db mice [1])	Blood glucose in glucose tolerance test, average value, 60 min (db/db mice [1])	Blood glucose in glucose tolerance test, average value, 120 min (db/db mice [1])	Glucose tolerance test AUC, average value (db/db mice [1])	Blood glucose in glucose tolerance test, average value, 0 min (db/db mice [1])	EC50 [2] [nM]	EC50 (human PPARα) [nM]	EC50 (RXR/PPARγ heterodimer) [nM]	Fasting blood glucose, average value, Day 0 (db/db mice [3])	Fasting blood glucose, average value, Day 3 (db/db mice [3])	Fasting blood glucose, average value, Day 6 (db/db mice [3])	Fasting blood glucose, average value, Day 9 (db/db mice [3])	Fasting blood glucose, average value, Day 12 (db/db mice [3])	Fasting blood glucose, average value, Day 14 (db/db mice [3])
O=C(c1ccc(F)cc1)c1ccccc1NC(Cc1ccc(OCCn2c3ccccc3c3ccccc32)cc1)C(=O)O (single isomer, unassigned; (+)) [Enantiomer 2, (+)-2-[(2-(4-fluorobenzoyl)phenyl)amino]-3-[(4-(2-carbazole-ethoxy)phenyl)]propionic acid]	31.87	33.3	30.94	25.75	59.16	17.18	> 10000	5380	2710	18.86	23.99	20.03	26.01	26.44	17.18
O=C(c1ccc(F)cc1)c1ccccc1NC(Cc1ccc(OCCn2c3ccccc3c3ccccc32)cc1)C(=O)O (single isomer, unassigned; (-)) [Enantiomer 1, (−)-2-[(2-(4-fluorobenzoyl)phenyl)amino]-3-[(4-(2-carbazole-ethoxy)phenyl)]propionic acid]	28.02	32.26	26.6	14.69	47.77	10.98	1930	1140	76	18.43	18.2	14.7	18.14	16.18	10.98
CN(CCOc1ccc(CC2SC(=O)NC2=O)cc1)c1ccccn1 (centres unmarked) [rosiglitazone, reference compound]	28.11	31.22	25.08	13.61		11.29				19.09	13.58	13.8	15.05	14.44	11.29
